Like-named read-outs stand apart in the source and are kept apart here.
What was measured:
[1] = system: OT-1 CD8+ T cells with SIINFEKL-loaded MC38 tumor cells; experiment: Murine cytotoxic T lymphocyte assay (IFN-γ, OT-1 CTL with MC38 tumor cells); assay type: cell-based, mouse; settings: Mus musculus, MC-38; read-out: msCTL INFg IC50
Procedure, shortened: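 OT-1 CD8+ T cells, expanded 5 days with OVA peptide (1 μg/mL) and mIL2, pretreated 1 h with DGK inhibitors, then co-cultured overnight at 37° C at 1:10 with MC38 cells pulsed 3 h with 1 μg/mL SIINFEKL. IFN-γ in 24 h supernatant by AlphaLISA.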

Human venous whole blood = experiment: Human whole blood IFN-γ assay; assay type: cell-based; settings: Homo sapiens, human whole blood, normalized to 3 μM reference compound with anti-CD3 plus anti-CD28 as 100% activation, read-out: INFg Whole Blood Normalized Agonist EC50;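 also: blood from healthy donors exposed to compound for 1 h before stimulation with anti-CD3 and anti-CD28 at 1 µg/mL each, IFN-γ quantified in supernatant by AlphaLISA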
Method: Human Whole Blood IFN-γ Assay
Human venous whole blood (22.5 μL per well), obtained from healthy donors, was pre-treated with compounds for one hour at 37° C. in a humidified 95% air/5% CO2 incubator. The blood was stimulated with 2.5 μL anti-human CD3 and anti-CD28 mAb at a final concentration of 1 μg/mL each for 24 hours at 37° C. IFN-γ in the supernatants was measured using AlphLISA kit (Cat # AL217).

naïve human CD8 T cells = experiment: Human CD8 T cells IFN-γ assay; assay type: cell-based; settings: Homo sapiens, T-cell, 20 h, normalized to 3 μM reference compound with anti-CD3 plus anti-CD28 as 100% activation; read-out: HuCD8 INFG Normalized EC50;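 also: Naïve human CD8 T cells stimulated with plate-bound anti-CD3 and soluble anti-CD28, IFN-γ in supernatant quantified by AlphaLISA and converted to pg/mL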
Method: Human CD8 T Cells IFN-γ Assay
Frozen naïve human CD8 T cells were thawed in AIM-V media, incubated for 2 h in 37° C., and counted. The 384-well tissue culture plate was coated overnight at 4° C. with 20 μL anti-human CD3 at 0.05 μg/mL in PBS, which was removed off the plate before 40,000 cells per 40 microliters CD8 T cells with 0.1 μg/mL soluble anti-human CD28 were added to each well. The compounds were transferred using an Echo liquid handler to the cell plate immediately after the cells were plated. After 20 h incubation at 37° C. incubator, 3 microliters per well supernatants transferred into a new 384-well white assay plate for cytokine measurement.
Interferon-γ (IFN-γ) was quantitated using the AlphLISA kit (Cat # AL217) as described by the manufacturer manual (Perkin Elmer). The counts from each well were converted to IFN-γ concentration (pg/mL).

human DGKα = molecular target: T1, human DGKα (Homo sapiens, UniProt P23743); experiment: DGKα LIPGLO assay (extruded liposome substrate), in vitro DGK inhibition; assay type: biochemical; settings: liposome (LIPGLO) assay; read-out: DGKa LIPGLO IC50
T1 construct: TVMV protease cleavage site (C); Hexa-His (C); made in house; host or cells: Sf9 insect cells (baculovirus, Bac-to-Bac)
T1 sequence (P23743 with tags, fused parts or gaps): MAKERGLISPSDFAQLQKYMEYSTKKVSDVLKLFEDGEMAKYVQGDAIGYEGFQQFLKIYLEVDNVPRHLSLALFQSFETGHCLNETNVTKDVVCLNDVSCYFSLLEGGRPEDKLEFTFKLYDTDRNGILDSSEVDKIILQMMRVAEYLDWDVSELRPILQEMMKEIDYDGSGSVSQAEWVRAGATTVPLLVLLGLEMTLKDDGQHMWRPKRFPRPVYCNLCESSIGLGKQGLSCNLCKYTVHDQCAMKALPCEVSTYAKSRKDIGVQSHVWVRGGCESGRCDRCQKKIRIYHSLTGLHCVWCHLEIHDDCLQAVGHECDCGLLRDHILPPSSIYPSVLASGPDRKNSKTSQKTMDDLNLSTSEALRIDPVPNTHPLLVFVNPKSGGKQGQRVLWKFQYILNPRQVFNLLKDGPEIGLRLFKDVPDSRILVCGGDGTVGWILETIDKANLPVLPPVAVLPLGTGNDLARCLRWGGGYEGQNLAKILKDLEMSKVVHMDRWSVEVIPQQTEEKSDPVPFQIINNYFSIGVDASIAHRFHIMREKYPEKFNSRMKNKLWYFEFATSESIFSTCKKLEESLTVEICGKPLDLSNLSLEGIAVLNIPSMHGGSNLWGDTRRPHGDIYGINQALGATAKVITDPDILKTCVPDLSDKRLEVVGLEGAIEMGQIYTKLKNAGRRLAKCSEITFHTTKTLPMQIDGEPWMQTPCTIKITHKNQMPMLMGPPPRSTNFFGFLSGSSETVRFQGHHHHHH

human DGKζ = molecular target: T2, human DGKζ (Homo sapiens, UniProt Q13574); experiment: DGKζ LIPGLO assay (extruded liposome substrate), in vitro DGK inhibition; assay type: biochemical; settings: liposome (LIPGLO) assay; read-out: DGKz LIPGLO IC50
T2 construct: TVMV protease cleavage site (C); Hexa-His (C); made in house; host or cells: Sf9 insect cells (baculovirus, Bac-to-Bac)
T2 sequence (Q13574 with tags, fused parts or gaps isoform Q13574-4): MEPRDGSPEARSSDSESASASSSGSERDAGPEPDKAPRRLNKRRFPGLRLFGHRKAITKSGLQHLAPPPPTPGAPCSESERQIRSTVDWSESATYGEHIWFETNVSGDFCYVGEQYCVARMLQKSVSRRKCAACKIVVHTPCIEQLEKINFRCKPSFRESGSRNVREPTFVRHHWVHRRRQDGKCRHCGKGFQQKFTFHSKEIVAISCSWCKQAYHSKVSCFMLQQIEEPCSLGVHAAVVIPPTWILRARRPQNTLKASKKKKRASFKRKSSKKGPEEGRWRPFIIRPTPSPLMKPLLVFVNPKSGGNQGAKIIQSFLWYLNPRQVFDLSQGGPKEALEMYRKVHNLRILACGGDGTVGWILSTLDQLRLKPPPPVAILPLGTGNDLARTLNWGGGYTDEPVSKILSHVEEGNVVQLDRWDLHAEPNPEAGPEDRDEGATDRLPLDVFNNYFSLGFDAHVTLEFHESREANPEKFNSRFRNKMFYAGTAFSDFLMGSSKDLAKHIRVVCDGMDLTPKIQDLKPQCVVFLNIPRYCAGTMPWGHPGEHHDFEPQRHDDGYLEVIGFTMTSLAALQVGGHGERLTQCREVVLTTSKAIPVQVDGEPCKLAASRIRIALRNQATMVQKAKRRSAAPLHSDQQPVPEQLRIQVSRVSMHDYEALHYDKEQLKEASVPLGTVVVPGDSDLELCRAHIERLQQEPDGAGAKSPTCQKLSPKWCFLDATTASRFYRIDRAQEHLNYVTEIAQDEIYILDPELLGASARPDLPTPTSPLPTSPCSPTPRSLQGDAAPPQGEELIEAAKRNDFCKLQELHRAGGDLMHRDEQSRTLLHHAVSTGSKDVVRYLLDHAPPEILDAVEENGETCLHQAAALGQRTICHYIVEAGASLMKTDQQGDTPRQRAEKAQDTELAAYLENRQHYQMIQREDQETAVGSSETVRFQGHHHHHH

Compound | IC50 [1] | EC50 (Human venous whole blood; 24 h) | EC50 (naïve human CD8 T cells) | IC50 (human DGKα) | IC50 (human DGKζ) | EC50 (Human venous whole blood)
C[C@@H]1CN(C(c2ccc(F)cc2)c2ccc(F)cc2)[C@H](C)CN1c1c(Cl)c(=O)n(C)c2ccc(C#N)nc12 [Example 132, 8-((2R,5R)-4-(bis(4-fluorophenyl)methyl)-2,5-dimethylpiperazin-1-yl)-7-chloro-5-methyl-6-oxo-5,6-dihydro-1,5-naphthyridine-2-carbonitrile] | 7.1 µM | 8.3 µM | 2.1 µM | 51 µM | 2.7 µM | –
C[C@@H]1CN(C(c2ccc(F)cc2)c2ccc(F)cc2)CCN1c1cc(=O)n(C)c2ccc(C#N)nc12 [Example 135, (R)-8-(4-(bis(4-fluorophenyl)methyl)-2-methylpiperazin-1-yl)-5-methyl-6-oxo-5,6-dihydro-1,5-naphthyridine-2-carbonitrile] | 3.6 µM | 61 µM | 10 µM | 110 µM | 10 µM | –
C[C@@H]1CN(c2c(F)c(=O)n(C)c3ccc(C#N)nc23)[C@@H](C)CN1C(c1ccc(F)cc1)c1ccc(F)cc1 [Example 157, 8-((2S,5R)-4-(bis(4-fluorophenyl)methyl)-2,5-dimethylpiperazin-1-yl)-7-fluoro-5-methyl-6-oxo-5,6-dihydro-1,5-naphthyridine-2-carbonitrile] | 0.078 µM | 0.53 µM | 0.072 µM | 0.35 µM | 0.38 µM | –
C[C@@H]1CN(c2c(C#N)c(=O)n(C)c3ccc(C#N)nc23)[C@@H](C)CN1C(c1ccc(F)cc1)c1ccc(F)cc1 [Example 159, 8-((2S,5R)-4-(bis(4-fluorophenyl)methyl)-2,5-dimethylpiperazin-1-yl)-5-methyl-6-oxo-5,6-dihydro-1,5-naphthyridine-2,7-dicarbonitrile] | 0.14 µM | 1 µM | 0.035 µM | 2.8 µM | 0.96 µM | –
C[C@@H]1CN(c2c(C#N)c(=O)n(C)c3cccnc23)[C@@H](C)CN1C(c1ccc(F)cc1)c1ccc(F)cc1 [Example 160, 4-((2S,5R)-4-(bis(4-fluorophenyl)methyl)-2,5-dimethylpiperazin-1-yl)-1-methyl-2-oxo-1,2-dihydro-1,5-naphthyridine-3-carbonitrile] | 10 µM | 20 µM | 10 µM | 2.4 µM | 44 µM | –
C[C@@H]1CN(c2c([N+](=O)[O-])c(=O)n(C)c3ccc(C#N)nc23)[C@@H](C)CN1C(c1ccc(F)cc1)c1ccc(F)cc1 [Example 161, 8-((2S,5R)-4-(bis(4-fluorophenyl)methyl)-2,5-dimethylpiperazin-1-yl)-5-methyl-7-nitro-6-oxo-5,6-dihydro-1,5-naphthyridine-2-carbonitrile] | 1.5 µM | 8.6 µM | 0.52 µM | 68 µM | 29 µM | –
CC(C)[C@@H]1CN(c2cc(=O)n(C)c3ccc(C#N)nc23)CCN1C(c1ccc(Cl)cc1)c1ccc(Cl)cc1 [Example 167, (R)-8-(4-(bis(4-chlorophenyl)methyl)-3-isopropylpiperazin-1-yl)-5-methyl-6-oxo-5,6-dihydro-1,5-naphthyridine-2-carbonitrile] | 10 µM | 20 µM | 10 µM | 7.7 µM | 58 µM | –
CC(C)[C@@H]1CN(c2cc(=O)n(C)c3ccc(C#N)nc23)CCN1C(c1ccc(F)cc1)c1ccc(F)cc1 [Example 168, (R)-8-(4-(bis(4-fluorophenyl)methyl)-3-isopropylpiperazin-1-yl)-5-methyl-6-oxo-5,6-dihydro-1,5-naphthyridine-2-carbonitrile] | 0.51 µM | 10 µM | 10 µM | 7.5 µM | 240 µM | –
CC(C)[C@@H]1CN(c2c(C#N)c(=O)n(C)c3ccc(C#N)nc23)CCN1C(c1ccc(F)cc1)c1ccc(F)cc1 [Example 169, (R)-8-(4-(bis(4-fluorophenyl)methyl)-3-isopropylpiperazin-1-yl)-5-methyl-6-oxo-5,6-dihydro-1,5-naphthyridine-2,7-dicarbonitrile] | 2.6 µM | 13 µM | 0.44 µM | 3.2 µM | 77 µM | –
CC[C@@H]1CN(c2cc(=O)n(C)c3ccc(C#N)nc23)CCN1C(c1ccc(F)cc1)c1ccc(F)cc1 [Example 172, (R)-8-(4-(bis(4-fluorophenyl)methyl)-3-ethylpiperazin-1-yl)-5-methyl-6-oxo-5,6-dihydro-1,5-naphthyridine-2-carbonitrile] | 0.039 µM | 1.3 µM | 0.036 µM | 1.9 µM | 1.4 µM | –
CC[C@@H]1CN(c2c(C#N)c(=O)n(C)c3ccc(C#N)nc23)CCN1C(c1ccc(F)cc1)c1ccc(F)cc1 [Example 173, (R)-8-(4-(bis(4-fluorophenyl)methyl)-3-ethylpiperazin-1-yl)-5-methyl-6-oxo-5,6-dihydro-1,5-naphthyridine-2,7-dicarbonitrile] | 0.045 µM | 0.99 µM | 0.025 µM | 0.95 µM | 1.4 µM | –
CC[C@@H]1CN(c2c(F)c(=O)n(C)c3ccc(C#N)nc23)CCN1C(c1ccc(F)cc1)c1ccc(F)cc1 [Example 174, (R)-8-(4-(bis(4-fluorophenyl)methyl)-3-ethylpiperazin-1-yl)-7-fluoro-5-methyl-6-oxo-5,6-dihydro-1,5-naphthyridine-2-carbonitrile] | 0.11 µM | 2.2 µM | 0.034 µM | 0.82 µM | 0.43 µM | –
CC[C@@H]1CN(c2c(Cl)c(=O)n(C)c3ccc(C#N)nc23)CCN1C(c1ccc(F)cc1)c1ccc(F)cc1 [Example 175, (R)-8-(4-(bis(4-fluorophenyl)methyl)-3-ethylpiperazin-1-yl)-7-chloro-5-methyl-6-oxo-5,6-dihydro-1,5-naphthyridine-2-carbonitrile] | 0.61 µM | 4.3 µM | 0.051 µM | 2.4 µM | 0.33 µM | –
CC[C@@H]1CN(c2c(Cl)c(=O)n(C)c3ccc(C#N)nc23)CCN1C(c1ccc(Cl)cc1)c1ccc(Cl)cc1 [Example 177, (R)-8-(4-(bis(4-chlorophenyl)methyl)-3-ethylpiperazin-1-yl)-7-chloro-5-methyl-6-oxo-5,6-dihydro-1,5-naphthyridine-2-carbonitrile] | 0.87 µM | 5 µM | 0.13 µM | 5.5 µM | 2.7 µM | –
CC[C@@H]1CN(c2c(C#N)c(=O)n(C)c3ccc(C#N)nc23)CCN1C(c1ccc(Cl)cc1)c1ccc(Cl)cc1 [Example 179, (R)-8-(4-(bis(4-chlorophenyl)methyl)-3-ethylpiperazin-1-yl)-5-methyl-6-oxo-5,6-dihydro-1,5-naphthyridine-2,7-dicarbonitrile] | 0.049 µM | 1 µM | 0.052 µM | 0.88 µM | 0.88 µM | –
CC[C@@H]1CN(c2cc(=O)n(C)c3ccc(C#N)nc23)CCN1C(c1ccc(Cl)cc1)c1ccc(Cl)cc1 [Example 180, (R)-8-(4-(bis(4-chlorophenyl)methyl)-3-ethylpiperazin-1-yl)-5-methyl-6-oxo-5,6-dihydro-1,5-naphthyridine-2-carbonitrile] | 0.4 µM | 0.83 µM | 0.07 µM | 4.1 µM | 1.5 µM | –
CC(C)[C@@H]1CN(C(c2ccc(F)cc2)c2ccc(F)cc2)CCN1c1cc(=O)n(C)c2ccc(C#N)nc12 [Example 181, (R)-8-(4-(bis(4-fluorophenyl)methyl)-2-isopropylpiperazin-1-yl)-5-methyl-6-oxo-5,6-dihydro-1,5-naphthyridine-2-carbonitrile] | 10 µM | 20 µM | 10 µM | 240 µM | 240 µM | –
C[C@@H]1CN(c2cc(=O)n(C)c3ccc(C#N)nc23)[C@@H](C)CN1Cc1ccc(F)c(F)c1 [Example 291, 8-[(2S,5R)-4-[(3,4-difluorophenyl)methyl]-2,5-dimethylpiperazin-1-yl]-5-methyl-6-oxo-5,6-dihydro-1,5-naphthyridine-2-carbonitrile] | 0.47 µM | 1.3 µM | 0.034 µM | 0.6 µM | 1.5 µM | –
Cc1ccc(C(c2ccc(C)cc2)N2C[C@H](C)N(c3cc(=O)n(C)c4ccc(C#N)nc34)C[C@H]2C)cc1 [Example 301, 8-[(2S,5R)-4-[bis(4-methylphenyl)methyl]-2,5-dimethylpiperazin-1-yl]-5-methyl-6-oxo-5,6-dihydro-1,5-naphthyridine-2-carbonitrile] | 0.072 µM | – | 0.0095 µM | 1.5 µM | 0.87 µM | 0.52 µM

Source: patent US10669272B2, “Substituted naphthyridinone compounds useful as T cell activators” (BRISTOL-MYERS SQUIBB COMPANY, priority 2018, dated 2020)
